The NIST ThermoML archive (doi:10.1016/j.fluid.2007.01.038)
Numbers after ± are expanded uncertainties.

Key:
[1] = Liquid; for mass density: 298.15 K, 101.33 kPa; for Normal boiling temperature: Ebulliometric method (Recirculating still)
[2] = refractive index (Na D-line) (dimensionless); conditions: 298.15 K; 101.33 kPa; Liquid; Standard Abbe refractometry

mass density [1] [kg/m3] | Normal boiling temperature [1] [°C] | refractive index [2] | Structure (SMILES)
786.63 ± 0.5 | 64.4 ± 0.1 | 1.3264 ± 0.0007 | CO [methanol]
757.57 ± 0.26 | 122.50 ± 0.1 | 1.3917 ± 0.00072 | CCCCOC(C)(C)C [butane, 1-(1,1-dimethylethoxy)-]
785.22 ± 0.5 | 78.29 ± 0.1 | 1.3592 ± 0.00073 | CCO [ethanol]
